This passage reports IC50 results from patent US20220298138A1, “ENZYME INHIBITORS” (KALVISTA PHARMACEUTICALS LIMITED, priority 2019, published 2022).

The target in one experiment is T1, Human Factor XIIa (Homo sapiens, UniProt P00748).
T1 construct: purchased Enzyme Research Laboratories
T1 sequence (P00748 373-615 limits assumed): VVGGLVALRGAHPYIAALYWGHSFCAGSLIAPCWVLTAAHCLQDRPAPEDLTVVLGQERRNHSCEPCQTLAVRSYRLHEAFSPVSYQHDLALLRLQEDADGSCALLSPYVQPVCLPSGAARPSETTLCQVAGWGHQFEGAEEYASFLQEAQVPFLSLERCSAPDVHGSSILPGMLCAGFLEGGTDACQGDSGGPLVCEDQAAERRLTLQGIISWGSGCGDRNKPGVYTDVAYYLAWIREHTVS
Kind of experiment: Factor XIIa inhibitory activity in vitro (fluorogenic substrate H-DPro-Phe-Arg-AFC). Format: biochemical. To be noted: 25° C., class symbols, read-out: Human FXIIa IC50. Here is the method: Determination of the % Inhibition for FXIIa
Human Factor XIIa (Enzyme Research Laboratories) was incubated at 25° C. with the fluorogenic substrate H-DPro-Phe-Arg-AFC and various concentrations of the test compound. Residual enzyme activity (initial rate of reaction) was determined by measuring the change in […] at 410 nm and the IC50 value for the test compound was determined.
`Nc1nccc2cc(CNC(=O)[C@H](Cc3ccc(F)c(F)c3)NC(=O)c3ccc(O)nc3)ccc12` [Example 0.62]: the 50% inhibitory concentration (IC50) – broadly, the concentration at which inhibition is half-maximal – lay in the range of 3 to 10 µM. As for `Cc1ccnn1CCC(=O)N[C@@H](Cc1ccc(F)c(F)c1)C(=O)NCc1ccc2c(N)nccc2c1` [Example 20.03], the IC50 lay within 10 to 40 µM. With `Nc1nccc2cc(CNC(=O)[C@@H](N)Cc3cccc(F)c3)ccc12` [Example 24.02], the IC50 lay within 10 to 40 µM. The same measure, in the same setting: the same measure for `CC(C)N[C@H](CCc1ccccc1)C(=O)N[C@@H](C)C(=O)NCc1cc2c(Cl)cccc2s1` [Example 9.23]: 10 to 40 µM; for `Cc1cc(C(=O)N[C@@H](Cc2ccc(F)c(F)c2)C(=O)NCc2ccc3c(N)nccc3c2)n[nH]1` [Example 0.14]: 3 to 10 µM. For the compound `Nc1nccc2cc(CNC(=O)[C@H](Cc3ccc(F)c(F)c3)NC(=O)CN3CCCCCC3)ccc12` [Example 3.38], the half-maximal inhibitory concentration (IC50) is 1 to 3 µM. On the same count and under the same terms, the same measure for `CS(=O)(=O)c1cccc(CC(=O)N[C@@H](Cc2ccc(F)c(F)c2)C(=O)NCc2ccc3c(N)nccc3c2)c1` [Example 3.24]: 3 to 10 µM; for `Nc1nccc2cc(CNC(=O)[C@H](Cc3ccc(F)c(F)c3)NC(=O)CN3CCCCC3)ccc12` [Example 3.06]: 1 to 3 µM; for `N[C@H](CCCCN1CCOCC1)C(=O)N1CC[C@H]1C(=O)NCc1ccc2[nH]cc(Cl)c2c1` [Example 10.19]: 3 to 10 µM.

With `Nc1nccc2cc(CNC(=O)[C@H](Cc3ccc(F)c(F)c3)NC(=O)CCn3cncn3)ccc12` [Example 20.07], the half-maximal inhibitory concentration (IC50) is 10 to 40 µM. On the same count and under the same terms, with `CC1(C)CCCN1CC(=O)N[C@@H](Cc1ccc(F)c(F)c1)C(=O)NCc1ccc2c(N)nccc2c1` [Example 3.18] the figure was 0.28 to 1 µM; with `CC(C)N[C@H](CCc1ccccc1)C(=O)N[C@@H](C)C(=O)NCCc1ccnc(N)c1` [Example 9.12], 10 to 40 µM. Still for that read-out and setting: the same measure for `Cn1cc(C(=O)N[C@@H](Cc2ccc(F)c(F)c2)C(=O)NCc2ccc3c(N)nccc3c2)ccc1=O` [Example 0.52]: 3 to 10 µM.

Take `Nc1nccc2cc(CNC(=O)[C@H](Cc3ccc(F)c(F)c3)NC(=O)c3ccc[nH]c3=O)ccc12` [Example 0.13]: the IC50 was in the range of 3 to 10 µM. With `C[C@@H]1CCC[C@H](C)N1CC(=O)N1c2ccccc2CC[C@H]1C(=O)NCc1ccc2c(N)nccc2c1` [Example 32.09], the half-inhibitory concentration (IC50) is 10 to 40 µM. On to `Cc1nc(C(=O)N[C@@H](Cc2ccc(F)c(F)c2)C(=O)NCc2ccc3c(N)nccc3c2)c(C)o1` [Example 0.06], for which the IC50 lay in the range of 10 to 40 µM. Same read-out and setting: with `CS(=O)(=O)c1cccc(C(=O)N[C@@H](Cc2ccc(F)c(F)c2)C(=O)NCc2ccc3c(N)nccc3c2)c1` [Example 0.47] the figure was 3 to 10 µM; with `Nc1nccc2cc(CNC(=O)[C@@H]3CCCN(C(=O)[C@H](N)CCc4ccccc4)C3)ccc12` [Example 17.04], 3 to 10 µM; with `C[C@@H]1CCC[C@H](C)N1CC(=O)N[C@H](Cc1ccc(F)c(F)c1)C(=O)NCc1ccc2c(N)nccc2c1` [Example 3.17], 1 to 3 µM. Turning to `Nc1nccc2cc(CNC(=O)[C@H](Cc3ccc(F)c(F)c3)NC(=O)CCNC(=O)c3ccc(F)cc3)ccc12` [Example 20.09], the IC50 fell in the range of 10 to 40 µM. Still for that read-out and setting: the same measure for `CCOC(=O)c1cn(-c2ccc(OC)c(F)c2CNC(=O)[C@H](C)NC(=O)[C@@H](CCc2ccccc2)NC(C)C)nn1` [Example 9.19]: 10 to 40 µM; for `Nc1nccc2cc(CNC(=O)[C@H](Cc3ccc(F)c(F)c3)NC(=O)c3ccc(Cn4cnnn4)cc3)ccc12` [Example 0.67]: 1 to 3 µM; for `Cc1cc2ncc(C(=O)N[C@@H](Cc3ccc(F)c(F)c3)C(=O)NCc3ccc4c(N)nccc4c3)c(C)n2n1` [Example 0.36]: 3 to 10 µM. On the same count and under the same terms, the same measure for `C[C@@H]1CCC[C@H](C)N1CC(=O)N[C@@H](Cc1ccc(F)c(F)c1)C(=O)NCc1cccc2[nH]ccc12` [Example 34.03]: 3 to 10 µM. In the case of `C[C@@H]1CCC[C@H](C)N1CC(=O)N1CC[C@@H](C(=O)NCc2ccc3c(N)nccc3c2)C1` [Example 32.07], the half-inhibitory concentration (IC50) was 10 to 40 µM. For the compound `CN(C)[C@H](CCc1ccccc1)C(=O)NCC(=O)NCc1ccc2c(N)nccc2c1` [Example 18.104], the IC50 was 1 to 3 µM. The same measure, in the same setting: the same measure for `CC(C)N(C)CC(=O)N[C@@H](Cc1ccc(F)c(F)c1)C(=O)NCc1ccc2c(N)nccc2c1` [Example 3.08]: 0.28 to 1 µM; for `CC(C)c1cc(C(=O)N[C@@H](Cc2ccc(F)c(F)c2)C(=O)NCc2ccc3c(N)nccc3c2)n(C)n1` [Example 0.90]: 10 to 40 µM. On the same count and under the same terms, the same measure for `Cc1cc(C)c(C(=O)N[C@@H](Cc2ccc(F)c(F)c2)C(=O)NCc2ccc3c(N)nccc3c2)[nH]1` [Example 0.01]: 3 to 10 µM; for `C[C@@H]1CCC[C@H](C)N1CC(=O)N[C@@H](Cc1ccc(Cl)cc1)C(=O)NCc1ccc2c(N)nccc2c1` [Example 3.12]: 3 to 10 µM; for `Cc1nc2ccccc2n1CCC(=O)N[C@@H](Cc1ccc(F)c(F)c1)C(=O)NCc1ccc2c(N)nccc2c1` [Example 20.06]: 10 to 40 µM. Turning to `Cc1nccn1CCC(=O)N[C@@H](Cc1ccc(F)c(F)c1)C(=O)NCc1ccc2c(N)nccc2c1` [Example 3.31], the IC50 lay in the range of 3 to 10 µM. Same read-out and setting: with `CCCS(=O)(=O)N[C@@H](Cc1ccc(F)c(F)c1)C(=O)NCc1ccc2c(N)nccc2c1` [Example 55.01] the figure was 10 to 40 µM; with `Nc1nccc2cc(CNC(=O)[C@H](Cc3ccc(F)c(F)c3)NC(=O)c3cccs3)ccc12` [Example 0.82], 10 to 40 µM. For `Nc1nccc2cc(CNC(=O)[C@H](Cc3ccc(F)c(F)c3)NC(=O)CCc3nnc(-c4ccccc4)o3)ccc12` [Example 0.51], the IC50 lay within 10 to 40 µM. Still for that read-out and setting: with `C[C@@H]1CCC[C@H](C)N1CC(=O)N[C@@H](Cc1ccc(F)c(F)c1)C(=O)NCc1ccnc(N)c1` [Example 34.04] the figure was 10 to 40 µM. The same measure, in the same setting: with `C[C@@H]1CCC[C@H](C)N1[C@@H](C)C(=O)N[C@@H](Cc1ccc(F)c(F)c1)C(=O)NCc1ccc2c(N)nccc2c1` [Example 5.106] the figure was 3 to 10 µM. On the same count and under the same terms, the same measure for `CC(OCc1ccccc1)[C@H](NC(=O)CN1[C@H](C)CCC[C@@H]1C)C(=O)NCc1ccc2c(N)nccc2c1` (stereo partly shown) [Example 39.05]: 3 to 10 µM; for `CS(=O)(=O)N[C@@H](Cc1ccc(F)c(F)c1)C(=O)NCc1ccc2c(N)nccc2c1` [Example 55.02]: 10 to 40 µM; for `C[C@H](NC(=O)[C@@H](CCc1ccccc1)NCC(C)(C)C)C(=O)NCc1cnc2[nH]cc(Cl)c2c1` [Example 9.26]: 3 to 10 µM. In the case of `C[C@@H]1CCC[C@H](C)N1CC(=O)N1CCC[C@@H](C(=O)NCc2ccc3c(N)nccc3c2)C1` [Example 32.08], the IC50 lay in the range of 1 to 3 µM. For `CC(C)c1cc(C(=O)N[C@@H](Cc2ccc(F)c(F)c2)C(=O)NCc2ccc3c(N)nccc3c2)ncn1` [Example 0.87], the IC50 was in the range of 0.28 to 1 µM. Same read-out and setting: the same measure for `Nc1nccc2cc(CNC(=O)C[C@@H](N)Cc3ccccc3)ccc12` [Example 24.03]: 10 to 40 µM; for `C[C@@H]1CCC[C@H](C)N1CC(=O)N[C@@H](Cc1ccc(F)c(F)c1)C(=O)NC1CCN(c2ccncc2)CC1` [Example 34.02]: 3 to 10 µM. The same measure, in the same setting: with `CC1CCCC(C)N1CC(=O)N[C@@H](Cc1ccccc1Cl)C(=O)NCc1ccc2c(N)nccc2c1` (stereo partly shown) [Example 3.05] the figure was 1 to 3 µM. For `CN(C)C(C)(C)C(=O)N[C@@H](Cc1ccc(F)c(F)c1)C(=O)NCc1ccc2c(N)nccc2c1` [Example 0.86], the IC50 is 1 to 3 µM.

For `CC(C)c1cc(C(=O)N[C@@H](Cc2ccc(F)c(F)c2)C(=O)NCc2ccc3c(N)nccc3c2)[nH]n1` [Example 0.54], the IC50 was 3 to 10 µM.

With `C[C@@H]1CCC[C@H](C)N1CC(=O)N[C@@H](Cc1ccc(F)c(F)c1)C(=O)NCc1ccc2c(N)n[nH]c2c1` [Example 3.104, (2S)—N-[(3-amino-1H-indazol-6-yl)methyl]-3-(3,4-difluorophenyl)-2-{2-[(2R,6S)-2,6-dimethylpiperidin-1-yl]acetamido}propanamide], the IC50 lay within 10 to 40 µM. Regarding `Nc1nccc2cc(CNC(=O)[C@@H]3CCCN3C(=O)[C@H](N)CCc3ccccc3)ccc12` [Example 17.02], the IC50 lay in the range of 0.28 to 1 µM.

Consider `C[C@H]1CC[C@H](C)N1CC(=O)N[C@@H](Cc1ccc(F)c(F)c1)C(=O)NCc1ccc2c(N)nccc2c1` [Example 3.19], for which the IC50 was 0.28 to 1 µM. The same measure, in the same setting: the same measure for `Cn1ccc(C(=O)N[C@@H](Cc2ccc(F)c(F)c2)C(=O)NCc2ccc3c(N)nccc3c2)n1` [Example 0.17]: 10 to 40 µM; for `CC(C)N[C@H](CCCCN1CCOCC1)C(=O)N1CC[C@H]1C(=O)NCc1ccc2[nH]cc(Cl)c2c1` [Example 10.20]: 0.28 to 1 µM.

Take `Nc1nccc2cc(CNC(=O)[C@H](Cc3ccc(F)c(F)c3)NC(=O)C3(C(F)(F)F)CC3)ccc12` [Example 0.72]: the IC50 was 10 to 40 µM. On to `Nc1nccc2cc(CNC(=O)[C@H](Cc3ccc(F)c(F)c3)NC(=O)c3ccn[nH]3)ccc12` [Example 0.29], for which the IC50 lay in the range of 3 to 10 µM. As for `CC(C)c1ncncc1C(=O)N[C@@H](Cc1ccc(F)c(F)c1)C(=O)NCc1ccc2c(N)nccc2c1` [Example 0.89], the IC50 was 10 to 40 µM.

Take `Nc1nccc2cc(CNC(=O)[C@H](Cc3ccc(F)c(F)c3)NC(=O)C[C@H]3CCCO3)ccc12` [Example 3.36]: the IC50 is 10 to 40 µM.

`CC(C)N1CCC[C@@H]1C(=O)N[C@@H](Cc1ccc(F)c(F)c1)C(=O)NCc1ccc2[nH]ncc2c1` [Example 44.05]: the IC50 fell in the range of 10 to 40 µM.

The same experiment, now with this note: 25° C., numeric bound instead of class symbol, read-out: Human FXIIa IC50.
`Cc1ccnn1-c1ccc(C(=O)N[C@@H](Cc2ccc(F)c(F)c2)C(=O)NCc2ccc3c(N)nccc3c2)cc1` [Example 0.83]: the IC50 is above 12.7 µM.
